Here are results for 25 compounds from PubChem BioAssay AID296 (DTP/NCI, 2004).

Where “and” joins values, the source holds several entries; their conditions need not be identical. Identical values can stand only once. Inconclusive results are not listed.

For the assay, the system named is MX-1 breast xenograft, nude mice, tumor weight T/C. As to the kind of experiment: NCI In Vivo Anticancer Drug Screen. Data for tumor model Human Mammary Carcinoma MX-1 Xenograft (intrarenal inoculation) in NU/NU Swiss (nude) mice. The following applies: endpoint: mean tumor weight change, higher = larger tumour. The gist of the method: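 Mice carrying the implanted tumor receive either test agent or vehicle. Tumor size or survival is then recorded for both groups. Results are stated as the treated-to-control quotient.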
A general note: Xenograft models place foreign cells or tissue in a host animal.

Setting [1] is: dose: 150.0 mg/kg/injection, schedule: Q04DX003 (sc), vehicle: saline with Tween-80.
Setting [2] is: dose: 300.0 mg/kg/injection, schedule: Q04DX003 (sc), vehicle: saline with Tween-80.
[3] abbreviates: dose: 50.0 mg/kg/injection, schedule: Q01DX010 (sc), vehicle: saline with Tween-80.
The mark [4] stands for this setting: dose: 100.0 mg/kg/injection, schedule: Q01DX010 (sc), vehicle: saline with Tween-80.
Setting [5] is: dose: 300.0 mg/kg/injection, schedule: Q04DX003 (sc), vehicle: Klucel (hydroxypropylcellulose) (HPC).
[6] abbreviates: dose: 600.0 mg/kg/injection, schedule: Q04DX003 (sc), vehicle: Klucel (hydroxypropylcellulose) (HPC).
Where [7] appears, read: dose: 1200.0 mg/kg/injection, schedule: Q04DX003 (sc), vehicle: Klucel (hydroxypropylcellulose) (HPC).
[8] abbreviates: dose: 600.0 mg/kg/injection, schedule: Q04DX003 (sc), vehicle: saline with Tween-80.
[9] abbreviates: dose: 2400.0 mg/kg/injection, schedule: Q04DX003 (sc), vehicle: saline with Tween-80.
The mark [10] stands for this setting: dose: 300.0 mg/kg/injection, schedule: Q04DX003 (sc), vehicle: saline.
Where [11] appears, read: dose: 600.0 mg/kg/injection, schedule: Q04DX003 (sc), vehicle: saline.
Where [12] appears, read: dose: 1200.0 mg/kg/injection, schedule: Q04DX003 (sc), vehicle: saline.

In the case of `CN=C(N)N/N=C(\C)c1ccc2oc3ccc(/C(C)=N/NC(N)=NC)cc3c2c1`, the T/C reads like this: (dose: 75.0 mg/kg/injection, schedule: Q04DX003 (sc), vehicle: saline with Tween-80) 72 % of control; under setting [1], 86 % of control; under setting [2], 80 % of control.

In the case of `O=c1cc(CCl)[nH]nc1CCl`, the T/C under setting [3] is 77 % of control and the T/C under setting [4] is 42 % of control.

Regarding `Cc1c2ccncc2c(C)c2c1[nH]c1ccccc12`, the T/C runs as follows: (dose: 6.25 mg/kg/injection, schedule: Q01DX010 (sc), vehicle: saline) 63 % of control; (dose: 50.0 mg/kg/injection, schedule: Q01DX010 (sc), vehicle: suspension in saline) 81 % of control; (dose: 200.0 mg/kg/injection, schedule: Q01DX010 (sc), vehicle: suspension in saline) 85 % of control.

Regarding `ClCCCN1CCN(CCCCl)CC1`, the T/C was 113 % of control (dose: 75.0 mg/kg/injection, schedule: Q04DX003 (sc), vehicle: saline + alcohol) and 28 % of control (dose: 150.0 mg/kg/injection, schedule: Q04DX003 (sc), vehicle: saline + alcohol).

Regarding `COc1cccc2c1C(=O)c1c(O)c3c(c(O)c1C2=O)C[C@@](O)(C(C)=O)C[C@@H]3OC1CC(N)C(O)C(C)O1` (some centres not stated), the T/C was 161 % of control (dose: 0.5 mg/kg/injection, schedule: Q01DX010 (sc), vehicle: saline); 78 % of control and 89 % of control (dose: 4.0 mg/kg/injection, schedule: Q01DX010 (sc), vehicle: saline).

In the case of `CCc1c(CC(=O)O)c2cc(C)ccc2n1Cc1ccc(Cl)cc1`, the T/C is, setting by setting: under setting [5], 71 % of control; under setting [6], 86 % of control; under setting [7], 51 % of control; (dose: 2400.0 mg/kg/injection, schedule: Q04DX003 (sc), vehicle: Klucel (hydroxypropylcellulose) (HPC)) 49 % of control.

As to `CCCCCCCCCCCCCCCCCCCCCC(=O)Nc1ccn(C2OC(CO)C(O)C2O)c(=O)n1` (configuration not stated), the T/C by setting is: under setting [2], 123 % of control; under setting [8], 87 % of control; (dose: 1200.0 mg/kg/injection, schedule: Q04DX003 (sc), vehicle: saline with Tween-80) 68 % of control; under setting [9], 84 % of control.

With `CN=S(=O)(OCCCCCOS(=O)(=NC)c1ccccc1)c1ccccc1` (configuration not stated), under setting [8], the T/C was 76 % of control.

On to `CS(=O)(=O)OCCC(=O)N1CCN(C(=O)CCOS(C)(=O)=O)CC1`, for which the T/C (dose: 300.0 mg/kg/injection, schedule: Q04DX003 (sc), vehicle: suspension in saline) was 8 % of control; the T/C (dose: 600.0 mg/kg/injection, schedule: Q04DX003 (sc), vehicle: suspension in saline) was -100 % of control; the T/C (dose: 1200.0 mg/kg/injection, schedule: Q04DX003 (sc), vehicle: suspension in saline) was -100 % of control.

In the case of `Cc1cc(NC(=S)SCc2ccc3c(c2)OCO3)ccc1Cl`, the T/C is, setting by setting: (dose: 150.0 mg/kg/injection, schedule: Q04DX003 (sc), vehicle: Klucel (hydroxypropylcellulose) (HPC)) 106 % of control; under setting [5], 104 % of control; under setting [6], 118 % of control; under setting [7], 88 % of control.

With `O=Cc1ccccc1`, the T/C is 96 % of control (dose: 200.0 mg/kg/injection, schedule: Q04DX003 (sc), vehicle: Klucel (hydroxypropylcellulose) (HPC)); 92 % of control (dose: 400.0 mg/kg/injection, schedule: Q04DX003 (sc), vehicle: Klucel (hydroxypropylcellulose) (HPC)); 85 % of control (dose: 800.0 mg/kg/injection, schedule: Q04DX003 (sc), vehicle: Klucel (hydroxypropylcellulose) (HPC)).

Take `ClCC[Se](Cl)(Cl)c1ccccc1`: the T/C runs as follows: (dose: 12.5 mg/kg/injection, schedule: Q04DX003 (sc), vehicle: saline) 89 % of control; (dose: 25.0 mg/kg/injection, schedule: Q04DX003 (sc), vehicle: saline) 109 % of control; (dose: 50.0 mg/kg/injection, schedule: Q04DX003 (sc), vehicle: saline) 80 % of control; (dose: 100.0 mg/kg/injection, schedule: Q04DX003 (sc), vehicle: saline) 59 % of control.

For `OCC1OC(n2cnc3c(Cl)ncnc32)C(O)C1O` (configuration not stated), the T/C reads like this: under setting [10], 74 % of control; under setting [11], 84 % of control; under setting [12], 80 % of control.

On to `C=C1C(C)C2C(Cc3ccccc3)NC(=O)C23C(OC(C)=O)C=CC(C)(O)C(=O)C(C)C/C=C/C3C1O` (configuration not stated), for which the T/C is 344 % of control (dose: 3.75 mg/kg/injection, schedule: Q04DX003 (sc), vehicle: Klucel (hydroxypropylcellulose) (HPC)); 528 % of control (dose: 7.5 mg/kg/injection, schedule: Q04DX003 (sc), vehicle: Klucel (hydroxypropylcellulose) (HPC)); 497 % of control (dose: 15.0 mg/kg/injection, schedule: Q04DX003 (sc), vehicle: Klucel (hydroxypropylcellulose) (HPC)).

With `CO[C@@]12[C@@H]3N[C@@H]3CN1C1=C(C(=O)C(NCCc3ccccn3)=C(C)C1=O)[C@@H]2COC(N)=O`, the T/C is -84 % of control (dose: 6.25 mg/kg/injection, schedule: Q04DX003 (ip), vehicle: saline with Tween-80); -21 % of control (dose: 12.5 mg/kg/injection, schedule: Q04DX003 (ip), vehicle: saline with Tween-80); -95 % of control (dose: 25.0 mg/kg/injection, schedule: Q04DX003 (ip), vehicle: saline with Tween-80).

Take `C[CH2][Ge]([CH2]C)[CH2]C.C[CH2][Ge]([CH2]C)[CH2]C.C[CH2][Ge]([CH2]C)[O][Ge]([CH2]C)[CH2]C`: the T/C runs as follows: under setting [1], 109 % of control; under setting [2], 79 % of control.

Turning to `CC(=O)OC1=NC(C)c2c1cc(OC(C)=O)[nH]c2=O` (configuration not stated), the T/C was 102 % of control under setting [5], 91 % of control under setting [6] and 70 % of control under setting [7].

Turning to `O=c1nc(Oc2ccccc2)nc2ncccn12`, the T/C was 100 % of control (dose: 25.0 mg/kg/injection, schedule: Q01DX010 (sc), vehicle: saline with Tween-80); 120 % of control under setting [3]; 42 % of control under setting [4]; 46 % of control (dose: 200.0 mg/kg/injection, schedule: Q01DX010 (sc), vehicle: saline with Tween-80).

For `N=c1c(C(=O)OCc2ccccc2)ncc(CCl)n1O`, the T/C is 89 % of control under setting [8] and 72 % of control under setting [9].

Consider `NC(CCC(=O)NC(CS)C(=O)NCC(=O)O)C(=O)O` (configuration not stated), for which the T/C is 87 % of control under setting [10]; 93 % of control under setting [11]; 104 % of control under setting [12]; 89 % of control (dose: 2400.0 mg/kg/injection, schedule: Q04DX003 (sc), vehicle: saline).

As for `[N-]=[N+]=C1N=CN=C1c1ncn[nH]1`, the T/C runs as follows: (dose: 12.5 mg/kg/injection, schedule: Q01DX010 (sc), vehicle: Klucel (hydroxypropylcellulose) (HPC)) 121 % of control; (dose: 25.0 mg/kg/injection, schedule: Q01DX010 (sc), vehicle: Klucel (hydroxypropylcellulose) (HPC)) 76 % of control.

Take `CC[C@@]1(O)C(=O)OCc2c1cc1n(c2=O)Cc2cc3ccccc3nc2-1`: the T/C runs as follows: (dose: 1.0 mg/kg/injection, schedule: Q04DX003 (sc), vehicle: saline with Tween-80) 100 % of control; (dose: 2.0 mg/kg/injection, schedule: Q04DX003 (sc), vehicle: saline with Tween-80) 58 % of control; (dose: 4.0 mg/kg/injection, schedule: Q04DX003 (sc), vehicle: saline with Tween-80) 23 % of control; (dose: 8.0 mg/kg/injection, schedule: Q04DX003 (sc), vehicle: saline with Tween-80) 11 % of control.

For `Cc1cc(NCCCCCCCNc2cc(C)nc3cc(N)ccc23)c2ccc(N)cc2n1`, the T/C (dose: 12.5 mg/kg/injection, schedule: Q01DX010 (sc), vehicle: saline with Tween-80) was 53 % of control and 56 % of control and 72 % of control.

As for `CC(=O)OCC1OC(OC(C)=O)C(NC(=O)N(CCCl)N=O)C(OC(C)=O)C1OC(C)=O` (configuration not stated), the T/C is 95 % of control (dose: 6.0 mg/kg/injection, schedule: Q04DX003 (sc), vehicle: Klucel (hydroxypropylcellulose) (HPC)) and 77 % of control (dose: 24.0 mg/kg/injection, schedule: Q04DX003 (sc), vehicle: Klucel (hydroxypropylcellulose) (HPC)).

Turning to `CCOC(=O)N(C)N=NC`, the T/C by setting is: (dose: 15.0 mg/kg/injection, schedule: Q04DX003 (ip), vehicle: saline) 97 % of control; (dose: 30.0 mg/kg/injection, schedule: Q04DX003 (ip), vehicle: saline) 95 % of control; (dose: 60.0 mg/kg/injection, schedule: Q04DX003 (ip), vehicle: saline) 71 % of control; (dose: 120.0 mg/kg/injection, schedule: Q04DX003 (ip), vehicle: saline) 52 % of control.
